# “And” between values parts separate entries of the source, which are not always exact repeats. Equal entries are not always repeated. Where two headings read alike, the source gives them in different places.
# Assays:
# [1] = Passive artificial membrane permeability (PAMPA)
# human α-thrombin = human α-thrombin (Homo sapiens, UniProt P00734); assay: Protease inhibition, Ki for human α-thrombin (fluorogenic substrate Z-Gly-Gly-Arg-AMC); type: biochemical; conditions: human alpha thrombin; for Slope normalized to DMSO (proteolytic substrate cleavage over time): replicates R1-R3
# Outline: (§1)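 Ki derived through Cheng–Prusoff from IC50s (four-parameter logistic fit) against activity of peptide-free controls. Product fluorescence was read every 3 min over 30 min at 25 °C, substrate Z-Gly-Gly-Arg-AMC at 50 μM. Enzyme was 2 nM human or 3 nM rat α-thrombin, pH 7.4 buffer.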
# rat α-thrombin = biological target: T1, rat α-thrombin (Rattus norvegicus, UniProt P18292); assay: Protease inhibition, Ki for rat α-thrombin (fluorogenic substrate Z-Gly-Gly-Arg-AMC); type: biochemical; conditions: rat alpha thrombin; for Slope normalized to DMSO (proteolytic substrate cleavage over time): replicates R1-R3
# T1 construct: rat α-thrombin (Molecular Innovations) were used at final concentrations of 2 nM and 3 nM; purchased Molecular Innovations
# Outline: as §1
# porcine pepsin = biological target: T2, porcine pepsin (Sus scrofa, UniProt P00791); assay: Peptide stability in simulated gastric fluid (SGF); type: in vitro ADME
# T2 construct: 0.32 g of porcine pepsin (Sigma-Aldrich, P7125) was dissolved under gentle agitation; purchased Sigma-Aldrich P7125
# T2 sequence (P00791 60-385): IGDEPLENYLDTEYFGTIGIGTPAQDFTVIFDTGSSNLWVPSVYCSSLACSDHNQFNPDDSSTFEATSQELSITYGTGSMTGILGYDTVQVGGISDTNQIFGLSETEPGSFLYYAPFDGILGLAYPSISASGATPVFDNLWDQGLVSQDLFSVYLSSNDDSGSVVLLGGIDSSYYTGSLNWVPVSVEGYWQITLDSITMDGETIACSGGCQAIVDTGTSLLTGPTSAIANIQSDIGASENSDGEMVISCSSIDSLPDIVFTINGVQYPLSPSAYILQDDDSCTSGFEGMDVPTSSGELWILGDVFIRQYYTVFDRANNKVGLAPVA
# Outline: (§2)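 Peptide from a 1 mM DMSO stock was added to fluid pre-warmed at 37 °C. SGF was pH 1.2 NaCl with porcine pepsin (0.32 g per 100 ml), and SIF was pH 6.8 potassium phosphate with porcine pancreatin (1 g per 100 ml). Supernatant peptide was quantified by LC–MS, with residual expressed as T1/T0.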
# porcine pancreatin = assay: Peptide stability in simulated intestinal fluid (SIF); type: in vitro ADME; conditions: after 8 h vs 0 h (TIC)
# Outline: as §2
# [2] = as above; type: in vitro ADME, porcine; conditions: simulated gi fluid; 8 h, 37 °C, pH 6.8; read-out: Proteolytic stability: SIF (8 h) % remaining
# Outline: as §2
structure (smiles),measurement,setting,value
O=C1CSCCC[C@H](NC(=O)c2ccc(Cl)s2)C(=O)N[C@@H](Cc2ccccc2)C(=O)N2CCC[C@@H]2CC(=O)NCCSC1 [compound 37],PAMPA permeability: % permeability,"[1]; 50 μM, 12–18 h, acceptor concentration relative to equilibrium",31 ± 10%
same,Papp at 50 μM,"[1]; PAMPA, pH 7.4",3.47 ×10⁻⁶ cm/s
same,Permeability% Average,"[1]; top well sample vs theoretical equilibrium sample (TIC), average of R1-R3",30.8%
same,Permeability%,"[1]; top well sample vs theoretical equilibrium sample (TIC), single replicates R1-R3",38.94% and 34.26% and 19.17%
same,Ki,"human α-thrombin; average of R1-R3, read-out: Ki Average, human alpha thrombin inhibition",20.6 nM
same,Slope normalized to DMSO (proteolytic substrate cleavage over time),human α-thrombin; peptide 1.02E-03 uM,99.8 and 96.2 and 96.4
same,Slope normalized to DMSO (proteolytic substrate cleavage over time),human α-thrombin; peptide 1.04E+00 uM,4.2 and 21.2 and 8.1
same,Slope normalized to DMSO (proteolytic substrate cleavage over time),human α-thrombin; peptide 1.27E-04 uM,99.4 and 96.4 and 91.4
same,Slope normalized to DMSO (proteolytic substrate cleavage over time),human α-thrombin; peptide 1.30E-01 uM,13.4 and 22.3 and 23.1
same,Slope normalized to DMSO (proteolytic substrate cleavage over time),human α-thrombin; peptide 1.59E-05 uM,98.7 and 104.2 and 99.3
same,Slope normalized to DMSO (proteolytic substrate cleavage over time),human α-thrombin; peptide 1.63E-02 uM,59.7 and 68.6 and 65.4
same,Slope normalized to DMSO (proteolytic substrate cleavage over time),human α-thrombin; peptide 1.67E+01 uM,1.8 and 5.4 and -0.5
same,Slope normalized to DMSO (proteolytic substrate cleavage over time),human α-thrombin; peptide 2.03E-03 uM,99.7 and 85.8 and 91.5
same,Slope normalized to DMSO (proteolytic substrate cleavage over time),human α-thrombin; peptide 2.08E+00 uM,2.6 and 15.2 and 7.7
same,Slope normalized to DMSO (proteolytic substrate cleavage over time),human α-thrombin; peptide 2.54E-04 uM,103.4 and 95.2 and 94.0
same,Slope normalized to DMSO (proteolytic substrate cleavage over time),human α-thrombin; peptide 2.60E-01 uM,9.5 and 17.0 and 11.6
same,Slope normalized to DMSO (proteolytic substrate cleavage over time),human α-thrombin; peptide 3.18E-05 uM,100.4 and 94.1 and 100.2
same,Slope normalized to DMSO (proteolytic substrate cleavage over time),human α-thrombin; peptide 3.26E-02 uM,41.8 and 49.6 and 51.1
same,Slope normalized to DMSO (proteolytic substrate cleavage over time),human α-thrombin; peptide 3.33E+01 uM,1.5 and 2.2 and 1.9
same,Slope normalized to DMSO (proteolytic substrate cleavage over time),human α-thrombin; peptide 4.07E-03 uM,80.8 and 82.5 and 73.0
same,Slope normalized to DMSO (proteolytic substrate cleavage over time),human α-thrombin; peptide 4.17E+00 uM,-1.2 and 8.8 and 5.3
same,Slope normalized to DMSO (proteolytic substrate cleavage over time),human α-thrombin; peptide 5.09E-04 uM,101.9 and 94.6 and 97.3
same,Slope normalized to DMSO (proteolytic substrate cleavage over time),human α-thrombin; peptide 5.21E-01 uM,4.7 and 16.3 and 9.9
same,Slope normalized to DMSO (proteolytic substrate cleavage over time),human α-thrombin; peptide 6.36E-05 uM,101.6 and 98.2 and 102.0
same,Slope normalized to DMSO (proteolytic substrate cleavage over time),human α-thrombin; peptide 6.51E-02 uM,27.8 and 39.2 and 31.3
same,Slope normalized to DMSO (proteolytic substrate cleavage over time),human α-thrombin; peptide 6.67E+01 uM,4.9 and 8.1 and 5.5
same,Slope normalized to DMSO (proteolytic substrate cleavage over time),human α-thrombin; peptide 7.95E-06 uM,99.9 and 99.1 (2×)
same,Slope normalized to DMSO (proteolytic substrate cleavage over time),human α-thrombin; peptide 8.14E-03 uM,73.2 and 74.4 and 76.4
same,Slope normalized to DMSO (proteolytic substrate cleavage over time),human α-thrombin; peptide 8.33E+00 uM,-0.9 and 2.2 and 1.0
same,IC50,"human α-thrombin; single replicates R1-R3, read-out: IC50, human alpha thrombin inhibition",21.8 nM and 29.6 nM and 28.8 nM
same,Ki,"human α-thrombin; single replicates R1-R3, read-out: Ki, human alpha thrombin inhibition",16.8 nM (2×) and 22.8 nM (2×) and 22.2 nM (2×)
same,Ki,"rat α-thrombin; average of R1-R3, read-out: Ki Average, rat alpha thrombin inhibition",4.1 nM
same,Slope normalized to DMSO (proteolytic substrate cleavage over time),rat α-thrombin; peptide 1.02E-03 uM,91.4 and 90.1 and 86.3
same,Slope normalized to DMSO (proteolytic substrate cleavage over time),rat α-thrombin; peptide 1.04E+00 uM,6.1 and 5.3 and 3.6
same,Slope normalized to DMSO (proteolytic substrate cleavage over time),rat α-thrombin; peptide 1.27E-04 uM,98.4 and 98.1 and 97.2
same,Slope normalized to DMSO (proteolytic substrate cleavage over time),rat α-thrombin; peptide 1.30E-01 uM,10.0 and 9.6 and 8.5
same,Slope normalized to DMSO (proteolytic substrate cleavage over time),rat α-thrombin; peptide 1.59E-05 uM,101.7 and 102.0 and 103.9
same,Slope normalized to DMSO (proteolytic substrate cleavage over time),rat α-thrombin; peptide 1.63E-02 uM,36.7 and 39.2 and 35.6
same,Slope normalized to DMSO (proteolytic substrate cleavage over time),rat α-thrombin; peptide 1.67E+01 uM,4.9 and 5.5
same,Slope normalized to DMSO (proteolytic substrate cleavage over time),rat α-thrombin; peptide 2.03E-03 uM,80.6 and 80.8 and 78.9
same,Slope normalized to DMSO (proteolytic substrate cleavage over time),rat α-thrombin; peptide 2.08E+00 uM,5.5 and 5.7 and 3.5
same,Slope normalized to DMSO (proteolytic substrate cleavage over time),rat α-thrombin; peptide 2.54E-04 uM,97.2 and 96.7 and 93.7
same,Slope normalized to DMSO (proteolytic substrate cleavage over time),rat α-thrombin; peptide 2.60E-01 uM,7.6 and 5.4 and 6.9
same,Slope normalized to DMSO (proteolytic substrate cleavage over time),rat α-thrombin; peptide 3.18E-05 uM,100.1 and 100.5 and 98.3
same,Slope normalized to DMSO (proteolytic substrate cleavage over time),rat α-thrombin; peptide 3.26E-02 uM,26.4 and 25.2 and 22.3
same,Slope normalized to DMSO (proteolytic substrate cleavage over time),rat α-thrombin; peptide 3.33E+01 uM,4.6 and 5.2 and 4.1
same,Slope normalized to DMSO (proteolytic substrate cleavage over time),rat α-thrombin; peptide 4.07E-03 uM,63.4 and 62.5 and 70.6
same,Slope normalized to DMSO (proteolytic substrate cleavage over time),rat α-thrombin; peptide 4.17E+00 uM,4.9 and 5.8 and -9.8
same,Slope normalized to DMSO (proteolytic substrate cleavage over time),rat α-thrombin; peptide 5.09E-04 uM,93.0 and 91.4 and 91.1
same,Slope normalized to DMSO (proteolytic substrate cleavage over time),rat α-thrombin; peptide 5.21E-01 uM,5.7 and 6.4 and 5.0
same,Slope normalized to DMSO (proteolytic substrate cleavage over time),rat α-thrombin; peptide 6.36E-05 uM,98.0 and 98.8 and 98.4
same,Slope normalized to DMSO (proteolytic substrate cleavage over time),rat α-thrombin; peptide 6.51E-02 uM,15.4 and 15.1 and 13.7
same,Slope normalized to DMSO (proteolytic substrate cleavage over time),rat α-thrombin; peptide 6.67E+01 uM,5.1 and 5.7 and 2.7
same,Slope normalized to DMSO (proteolytic substrate cleavage over time),rat α-thrombin; peptide 7.95E-06 uM,105.0 and 102.5 and 101.4
same,Slope normalized to DMSO (proteolytic substrate cleavage over time),rat α-thrombin; peptide 8.14E-03 uM,49.4 and 48.0 and 46.0
same,Slope normalized to DMSO (proteolytic substrate cleavage over time),rat α-thrombin; peptide 8.33E+00 uM,5.4 and 5.3 and 3.8
same,IC50,"rat α-thrombin; single replicates R1-R3, read-out: IC50, rat alpha thrombin inhibition",7.27 nM and 7.19 nM and 7.91 nM
same,Ki,"rat α-thrombin; single replicates R1-R3, read-out: Ki, rat alpha thrombin inhibition",4.03 nM (2×) and 3.98 nM (2×) and 4.38 nM (2×)
same,"SGF stability, Residual peptide Average","porcine pepsin; after 8 h vs 0 h (TIC), average of R1-R3",106.20
same,"SGF stability, Residual peptide","porcine pepsin; after 8 h vs 0 h (TIC), single replicates R1-R3",119.66 and 103.22 and 95.72
same,remaining at 8 h,"porcine pepsin; simulated gi fluid, 8 h, 37 °C, pH 1.2, read-out: Proteolytic stability: SGF (8 h) % remaining",106 ± 12%
same,"SIF stability, Residual peptide Average",porcine pancreatin; average of R1-R3,83.45
same,"SIF stability, Residual peptide",porcine pancreatin; single replicates R1-R3,93.62 and 67.15 and 89.58
same,remaining at 8 h,[2],83 ± 14%

# From article PMC11062899, “De novo development of small cyclic peptides that are orally bioavailable” (Nature Chemical Biology, 2023)
